Assay results from publication PMC11224282, “Insight into binding of endogenous neurosteroid ligands to the sigma-1 receptor” (Nature Communications, 2024).
Where two headings read alike, the source gives them in different places.

Biological target: T1, xlσ1R E169A (Xenopus laevis, UniProt Q6DCU6, E169A)
T1 construct: hemagglutinin signal peptide (N); made in house; host or cells: Pichia pastoris GS115
T1 sequence (Q6DCU6 1-221 E169A): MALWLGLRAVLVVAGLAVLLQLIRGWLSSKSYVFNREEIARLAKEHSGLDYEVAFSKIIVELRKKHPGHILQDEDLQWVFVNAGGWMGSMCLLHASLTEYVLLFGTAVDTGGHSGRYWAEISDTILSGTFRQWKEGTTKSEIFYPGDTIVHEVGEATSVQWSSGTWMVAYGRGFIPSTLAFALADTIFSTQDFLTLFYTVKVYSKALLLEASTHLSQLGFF
Test: Microscale thermophoresis (MST) binding to xlσ1R E169A mutant

SMILES: CC(=O)[C@H]1CC[C@H]2[C@@H]3CCC4=CC(=O)CC[C@]4(C)[C@H]3CC[C@]12C [progesterone]
- Kd (MST, xlσ1R E169A, N = 3, mean (± SD), read-out: Kd (mean)): 980 ± 180 nM
- Kd (Source Data sheet Supplementary Table 3, E169A, mean of 3, read-out: Kd Mean): 990 nM
- Kd (Source Data sheet Supplementary Table 3, E169A, repeat 1, read-out: Kd Repeat 1): 920 nM
- Kd (Source Data sheet Supplementary Table 3, E169A, repeat 2, read-out: Kd Repeat 2): 1190 nM
- Kd (Source Data sheet Supplementary Table 3, E169A, repeat 3, read-out: Kd Repeat 3): 850 nM
